± gives the standard deviation of the averaged measurements.
Columns and labels:
CANERTINIB [1] = compound: T1, C=CC(=O)Nc1cc2c(Nc3ccc(F)c(Cl)c3)ncnc2cc1OCCCN1CCOCC1 [CANERTINIB]; experiment: surviving fraction relative to DMSO-only wells; higher = less growth inhibition; details: exposure time: 5 days
Summary of the method: (§1)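 A line counted only if its three screens reached replicate Pearson r >0.7 and median Z' >0.3. Tumour cells in log phase were seeded at 250–500 per well in 384-well plates and, after 24 hours, kept in continuous contact with inhibitors at 0.5, 1, 5, 10, 50, 100, 500 and 1000 nM for five days. Surviving fraction was taken from CellTiter-Glo luminescence relative to the median of DMSO-only wells.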

SNX-5422 [2] = compound: T2, CC1(C)CC(=O)c2c(C(F)(F)F)nn(-c3ccc(C(N)=O)c(N[C@H]4CC[C@H](OC(=O)CN)CC4)c3)c2C1 [SNX-5422]; experiment: as above; details: exposure time: 5 days
Summary of the method: as §1

SAPACITABINE [3] = compound: T3, CCCCCCCCCCCCCCCC(=O)Nc1ccn([C@@H]2O[C@H](CO)[C@@H](O)[C@@H]2C#N)c(=O)n1 [SAPACITABINE]; experiment: as above; details: exposure time: 5 days
Summary of the method: as §1

BI-2536 [4] = compound: T4, CC[C@@H]1C(=O)N(C)c2cnc(Nc3ccc(C(=O)NC4CCN(C)CC4)cc3OC)nc2N1C1CCCC1 [BI-2536]; experiment: as above; details: exposure time: 5 days
Summary of the method: as §1

AFATINIB [5] = compound: T5, CN(C)C/C=C/C(=O)Nc1cc2c(Nc3ccc(F)c(Cl)c3)ncnc2cc1O[C@H]1CCOC1 [AFATINIB]; experiment: as above; details: exposure time: 5 days
Summary of the method: as §1

MDV3100 [6] = compound: T6, CNC(=O)c1ccc(N2C(=S)N(c3ccc(C#N)c(C(F)(F)F)c3)C(=O)C2(C)C)cc1F [MDV3100]; experiment: as above; details: exposure time: 5 days
Summary of the method: as §1

[7] = compound: Cn1cc(C2=Nc3cc(NC(=O)C(N)C4CCCCC4)cc4c3C2=CNNC4=O)cn1; experiment: as above; details: exposure time: 5 days
Summary of the method: as §1

TIOGUANINE [8] = compound: T7, Nc1nc2[nH]cnc2c(=S)[nH]1 [TIOGUANINE]; experiment: as above; details: exposure time: 5 days
Summary of the method: as §1

CANERTINIB [9] = compound: T1, CANERTINIB; experiment: area under dose-response curve of surviving fraction (unscaled, Aref=0) (surviving fraction x log10(nM)); higher = more resistant; details: exposure time: 5 days; dose range 0.5-1000 nM
Summary of the method: (§2)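 Tumour cell lines in 384-well plates were exposed for five days to eight inhibitor concentrations from 0.5 to 1000 nM. Viability was read by CellTiter-Glo luminescence, normalised to DMSO-only wells, in three screens per line. Dose-response survival curves were fitted to surviving fractions by 3-parameter logistic regression in the drc R package. Area under the curve is the unscaled activity area (Aref = 0) over log10 dose.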

SNX-5422 [10] = compound: T2, SNX-5422; experiment: as above; details: exposure time: 5 days; dose range 0.5-1000 nM
Summary of the method: as §2

SAPACITABINE [11] = compound: T3, SAPACITABINE; experiment: as above; details: exposure time: 5 days; dose range 0.5-1000 nM
Summary of the method: as §2

BI-2536 [12] = compound: T4, BI-2536; experiment: as above; details: exposure time: 5 days; dose range 0.5-1000 nM
Summary of the method: as §2

AFATINIB [13] = compound: T5, AFATINIB; experiment: as above; details: exposure time: 5 days; dose range 0.5-1000 nM
Summary of the method: as §2

MDV3100 [14] = compound: T6, MDV3100; experiment: as above; details: exposure time: 5 days; dose range 0.5-1000 nM
Summary of the method: as §2

[15] = compound: Cn1cc(C2=Nc3cc(NC(=O)C(N)C4CCCCC4)cc4c3C2=CNNC4=O)cn1; experiment: as above; details: exposure time: 5 days; dose range 0.5-1000 nM
Summary of the method: as §2

TIOGUANINE [16] = compound: T7, TIOGUANINE; experiment: as above; details: exposure time: 5 days; dose range 0.5-1000 nM
Summary of the method: as §2

In the case of “JURKAT HAEMATOPOIETIC AND LYMPHOID TISSUE”, the surviving fraction (CANERTINIB [1]; 0.5 nM) is reported as 1.01 ± 0.025, the surviving fraction (CANERTINIB [1]; 1 nM) is reported as 0.977 ± 0.045 and the surviving fraction (CANERTINIB [1]; 5 nM) is reported as 1.02 ± 0.018. It also gave a surviving fraction (CANERTINIB [1]; 10 nM) of 0.952 ± 0.041, a surviving fraction (CANERTINIB [1]; 50 nM) of 0.978 ± 0.03 and a surviving fraction (CANERTINIB [1]; 100 nM) of 0.978 ± 0.014. For the same test system, the surviving fraction (CANERTINIB [1]; 500 nM) was 1.01 ± 0.031, the surviving fraction (CANERTINIB [1]; 1000 nM) was 0.839 ± 0.043 and the surviving fraction (SNX-5422 [2]; 0.5 nM) was 1.06 ± 0.014. The surviving fraction (SNX-5422 [2]; 1 nM) was 1.05 ± 0.02, the surviving fraction (SNX-5422 [2]; 5 nM) was 0.973 ± 0.082 and the surviving fraction (SNX-5422 [2]; 10 nM) was 0.942 ± 0.026. For the same test system, the surviving fraction (SNX-5422 [2]; 50 nM) was 0.094 ± 0.0027, the surviving fraction (SNX-5422 [2]; 100 nM) was 0.0437 ± 0.00058 and the surviving fraction (SNX-5422 [2]; 500 nM) was 0.0387 ± 0.0023. It also gave a surviving fraction (SNX-5422 [2]; 1000 nM) of 0.0443 ± 0.0011, a surviving fraction (SAPACITABINE [3]; 0.5 nM) of 0.944 ± 0.031 and a surviving fraction (SAPACITABINE [3]; 1 nM) of 0.973 ± 0.03. The surviving fraction (SAPACITABINE [3]; 5 nM) was 0.52 ± 0.0059, the surviving fraction (SAPACITABINE [3]; 10 nM) was 0.245 ± 0.008 and the surviving fraction (SAPACITABINE [3]; 50 nM) was 0.078 ± 0.0036. The surviving fraction (SAPACITABINE [3]; 100 nM) was 0.034 ± 0.001, the surviving fraction (SAPACITABINE [3]; 500 nM) was 0.0213 ± 0.00058 and the surviving fraction (SAPACITABINE [3]; 1000 nM) was 0.023. For the same test system, the surviving fraction (BI-2536 [4]; 0.5 nM) was 1.04 ± 0.022, the surviving fraction (BI-2536 [4]; 1 nM) was 0.911 ± 0.015 and the surviving fraction (BI-2536 [4]; 5 nM) was 0.028 ± 0.001. The surviving fraction (BI-2536 [4]; 10 nM) was 0.0257 ± 0.00058, the surviving fraction (BI-2536 [4]; 50 nM) was 0.0297 ± 0.00058 and the surviving fraction (BI-2536 [4]; 100 nM) was 0.0217 ± 0.00058. For the same test system, the surviving fraction (BI-2536 [4]; 500 nM) was 0.0177 ± 0.00058, the surviving fraction (BI-2536 [4]; 1000 nM) was 0.021 and the surviving fraction (AFATINIB [5]; 0.5 nM) was 1.07 ± 0.017. It also gave a surviving fraction (AFATINIB [5]; 1 nM) of 1.08 ± 0.025, a surviving fraction (AFATINIB [5]; 5 nM) of 1.07 ± 0.025 and a surviving fraction (AFATINIB [5]; 10 nM) of 1.07 ± 0.02. It also gave a surviving fraction (AFATINIB [5]; 50 nM) of 1.03 ± 0.098, a surviving fraction (AFATINIB [5]; 100 nM) of 1.05 ± 0.023 and a surviving fraction (AFATINIB [5]; 500 nM) of 0.779 ± 0.014. It also gave a surviving fraction (AFATINIB [5]; 1000 nM) of 0.259 ± 0.043, a surviving fraction (MDV3100 [6]; 0.5 nM) of 1.095 ± 0.0049 and a surviving fraction (MDV3100 [6]; 1 nM) of 1.1 ± 0.02. The surviving fraction (MDV3100 [6]; 5 nM) was 1.09 ± 0.022, the surviving fraction (MDV3100 [6]; 10 nM) was 1.06 ± 0.018 and the surviving fraction (MDV3100 [6]; 50 nM) was 1.05 ± 0.015. The surviving fraction (MDV3100 [6]; 100 nM) was 1.06 ± 0.031, the surviving fraction (MDV3100 [6]; 500 nM) was 1 ± 0.027 and the surviving fraction (MDV3100 [6]; 1000 nM) was 0.997 ± 0.039. It also gave a surviving fraction ([7]; 0.5 nM) of 1.08 ± 0.016, a surviving fraction ([7]; 1 nM) of 1.13 ± 0.013 and a surviving fraction ([7]; 5 nM) of 1.07 ± 0.021. For the same test system, the surviving fraction ([7]; 10 nM) was 1.06 ± 0.036, the surviving fraction ([7]; 50 nM) was 0.868 ± 0.019 and the surviving fraction ([7]; 100 nM) was 0.295 ± 0.022. For the same test system, the surviving fraction ([7]; 500 nM) was 0.023, the surviving fraction ([7]; 1000 nM) was 0.0237 ± 0.00058 and the surviving fraction (TIOGUANINE [8]; 0.5 nM) was 1.05 ± 0.034. It also gave a surviving fraction (TIOGUANINE [8]; 1 nM) of 1.07 ± 0.032, a surviving fraction (TIOGUANINE [8]; 5 nM) of 1.07 ± 0.04 and a surviving fraction (TIOGUANINE [8]; 10 nM) of 1.043 ± 0.0097. The surviving fraction (TIOGUANINE [8]; 50 nM) was 1.02 ± 0.039, the surviving fraction (TIOGUANINE [8]; 100 nM) was 1.04 ± 0.018 and the surviving fraction (TIOGUANINE [8]; 500 nM) was 1.01 ± 0.012. The surviving fraction (TIOGUANINE [8]; 1000 nM) was 0.565 ± 0.013, the “area under dose-response curve” value (CANERTINIB [9]) was 3.29 and the “area under dose-response curve” value (SNX-5422 [10]) was 1.7. The “area under dose-response curve” value (SAPACITABINE [11]) was 1.09, the “area under dose-response curve” value (BI-2536 [12]) was 0.479 and the “area under dose-response curve” value (AFATINIB [13]) was 3.13. For the same test system, the “area under dose-response curve” value (MDV3100 [14]) was 3.49, the “area under dose-response curve” value [15] was 2.23 and the “area under dose-response curve” value (TIOGUANINE [16]) was 3.27.

Reference: the supplement of paper PMC6045584
